Results on 22 molecules are retold here after article PMC9232448 (European Journal of Drug Metabolism and Pharmacokinetics, 2022).

Like-named read-outs stand apart in the source and are kept apart here.

Data set [1] deals with CYP3A4 mRNA. The experiment in a line: CYP3A4 mRNA induction in plated cryopreserved human hepatocytes. It counts as cell-based. The conditions noted are these: three donors; for true negative in vitro induction: statistical dose response and fold induction.
Data set [2] relates to human hepatocytes. The experiment in a line: Cytotoxicity / bell-shaped curves in hepatocyte induction incubations. To be noted: for concentration above which cytotoxicity was seen: donor two; for concentrations removed from fitting (bell-shaped curve, suspected cytotoxicity): all donors. It counts as cell-based.
Data set [3] in a line: Metabolic stability in hepatocyte induction incubations. In kind it is in vitro ADME, human. The conditions noted are these: last 24 hours of the incubation.
The conditions of data set [4]: cited from earlier work.
Data set [5] concerns CYP3A. To be noted: human, in vivo; cited from earlier work.
For data set [6] the following is noted: cited from earlier work. This is another data set of the same source.
The nature of data set [7]: Estimated free fraction in culture medium. To be noted: bovine, hepatocyte culture medium with 1.25 mg/ml BSA.
Where [8] appears, read: reported value before fu was set to 0.01.

Turning to `CCC(=O)NC[C@@H]1C[C@H]1c1cccc2c1CCO2` [Tasimelteon, tasimelteon], in data set [1], the “concentration-dependent increase in CYP3A4 mRNA” value (“concentration-dependent increase” below) is on record as “concentration-dependent increases in all three donors”. Turning to `Cc1cc(/C=C/C#N)cc(C)c1Nc1ccnc(Nc2ccc(C#N)cc2)n1` [Rilpivirine, rilpivirine], the “concentration-dependent increase” value in data set [1] is given as “concentration-dependent increases in all three donors”. Further, the “concentration above which cytotoxicity was seen” value in data set [2] is over 100 µM. Also, the “concentration above which signs of cytotoxicity were seen” value in data set [2] (donors one) is reported as over 30 µM. As for `O=C(O)c1ccc2nc(-c3cc(Cl)cc(Cl)c3)oc2c1` [Tafamidis, tafamidis], the “concentration-dependent increase” value in data set [1] was “concentration-dependent increases in all three donors”. In data set [3], the “% loss when comparing the Cavg to the T0 concentration (limited depletion)” value (from here on “% loss … (limited depletion)”) is under 25%. Besides, the “fu (reported plasma protein binding)” value in data set [4] (plasma) is 0.005.

As for `O=C(O)c1ccc(CN2C[C@@H]3C[C@H]2CN3Cc2ccc(Oc3ccc(-c4ncco4)cc3)cc2)cc1` [Acebilustat, acebilustat], in data set [1], the “true negative in vitro induction” value is reported as “true in vitro negatives in all three donors”. Also, the “% loss … (limited depletion)” value in data set [3] is given as under 25%. For the molecule `O=C(O)CSc1nnc(Br)n1-c1ccc(C2CC2)c2ccccc12` [Lesinurad, lesinurad], the “concentration-dependent increase” value in data set [1] was “concentration-dependent increases in all three donors”. The “% loss … (limited depletion)” value in data set [3] is on record as under 25%. Also, the “concentrations removed from fitting (bell-shaped curve, suspected cytotoxicity)” value in data set [2] is over 100 µM.

Take `NC(=O)N1c2ccccc2C=Cc2ccccc21` [Carbamazepine]: in data set [5], the AUCR range is given as 0.124–0.603. For the molecule `Cn1c(Cn2ccc(C(F)(F)F)c(Oc3cc(Cl)cc(C#N)c3)c2=O)n[nH]c1=O` [Doravirine, doravirine], the “concentration-dependent increase” value in data set [1] is “concentration-dependent increases in all three donors”. Further, the “% loss … (limited depletion)” value in data set [3] is given as under 25%. As to `Nc1nc(-n2cc(C(=O)O)c(=O)c3cc(F)c(N4CC(O)C4)c(Cl)c32)c(F)cc1F` [Delafloxacin, delafloxacin], in data set [1], the “true negative in vitro induction” value is on record as “negative in two donors” and the “concentration-dependent increase” value was “concentration-dependent increases in one of three donors”. Also, the “% loss … (limited depletion)” value in data set [3] is on record as under 25%. Further, the “concentration at which apparent cytotoxicity was seen” value in data set [2] (donor three) turned out to be 300 µM. Further, in data set [2], the “concentration above which cytotoxicity was seen” value is over 100 µM. For `Cc1nnc(C(=O)NC(C)(C)c2nc(C(=O)NCc3ccc(F)cc3)c(O)c(=O)n2C)o1` [Raltegravir, raltegravir], in data set [1], the “true negative in vitro induction” value is “true in vitro negatives in all three donors”. On to `COc1ccccc1Oc1c(NS(=O)(=O)c2ccc(C(C)(C)C)cc2)nc(-c2ncccn2)nc1OCCO` [Bosentan], for which the “observed fu,in vitro” value in data set [6] is 0.38. As for `CN(CCOc1ccc(CC2SC(=O)NC2=O)cc1)c1ccccn1` (stereo not drawn) [rosiglitazone], in data set [6], the “observed fu,in vitro” value is 0.15. The fraction unbound is free concentration divided by total concentration. For `Cc1cc(CCCOc2c(C)cc(-c3noc(C(F)(F)F)n3)cc2C)on1` [Pleconaril], in data set [7], the fraction unbound is 0.256. In addition, in data set [6], the “correction factor applied to nominal concentrations (nonspecific binding)” value was 0.2. In addition, the “fu (reported plasma protein binding)” value in data set [4] (setting [8]) was 0.01.

On to `O=C1NC(=O)C(c2ccccc2)(c2ccccc2)N1` [Phenytoin], for which the AUCR range in data set [5] is on record as 0.105–0.607.

As for `CCC1(c2ccccc2)C(=O)NC(=O)NC1=O` [Phenobarbital], the AUCR in data set [5] was 0.394. On to `O=C1Nc2ccc(Cl)cc2[C@@](C#CC2CC2)(C(F)(F)F)O1` [Efavirenz], for which the “fu (reported plasma protein binding)” value in data set [4] (plasma) is 0.0025. Also, the AUCR range in data set [5] was 0.240–0.929. Take `C[C@H](Cn1cnc2c(N)ncnc21)OCP(=O)(O)O` [Tenofovir, tenofovir]: the “true negative in vitro induction” value in data set [1] is “true in vitro negatives in all three donors”. Further, the “% loss … (limited depletion)” value in data set [3] is listed as under 25%.

With `CO[C@H]1/C=C/O[C@@]2(C)Oc3c(C)c(O)c4c(O)c(c5c(nc6cc(C)ccn65)c4c3C2=O)NC(=O)/C(C)=C\C=C\[C@H](C)[C@H](O)[C@@H](C)[C@@H](O)[C@@H](C)[C@H](OC(C)=O)[C@@H]1C` [Rifaximin, rifaximin], the “concentration-dependent increase” value in data set [1] is “concentration-dependent increases in all three donors”. For the same molecule, the “% loss … (limited depletion)” value in data set [3] was under 25%. As for `CCc1ccc(CCOc2ccc(CC3SC(=O)NC3=O)cc2)nc1` (stereo not drawn) [pioglitazone], the “observed fu,in vitro” value in data set [6] was 0.22. With `Cn1cnc2c(F)c(Nc3ccc(Br)cc3F)c(C(=O)NOCCO)cc21` [Binimetinib], the “concentration-dependent increase” value in data set [1] was “concentration-dependent increases in all three donors”.

For the molecule `CC(C)N(CCCCOCC(=O)NS(C)(=O)=O)c1cnc(-c2ccccc2)c(-c2ccccc2)n1` [Selexipag, selexipag], the “concentration-dependent increase” value in data set [1] is on record as “concentration-dependent increases in all three donors”. Moreover, in data set [4] (setting [8]), the “fu (reported plasma protein binding)” value was under 0.01.

For the molecule `CO[C@H]1/C=C/O[C@@]2(C)Oc3c(C)c(O)c4c(O)c(c(/C=N/N5CCN(C)CC5)c(O)c4c3C2=O)NC(=O)/C(C)=C\C=C\[C@H](C)[C@H](O)[C@@H](C)[C@@H](O)[C@@H](C)[C@H](OC(C)=O)[C@@H]1C` [Rifampicin], the “% loss … (limited depletion)” value in data set [3] is reported as under 25%. For `CC(C)OC(=O)[C@H](C)N[P@](=O)(OC[C@H]1O[C@@H](n2ccc(=O)[nH]c2=O)[C@](C)(F)[C@@H]1O)Oc1ccccc1` [Sofosbuvir, sofosbuvir], in data set [1], the “true negative in vitro induction” value is “negative in one donor” and the “concentration-dependent increase” value is “concentration-dependent increases in two of three donors”. Besides, the “concentrations removed from fitting (bell-shaped curve, suspected cytotoxicity)” value in data set [2] turned out to be 300 µM.
